Like-named read-outs stand apart in the source and are kept apart here.
Key:
[1] = Acute toxicity study, mice; conditions: mouse, in vivo
Excerpt: (§1) Acute toxicity studies have been conducted on compound 1 in order to obtain LD50 values.

Solubility in water = format: physicochemical
[2] = Recent clinical trials, oral administration to asthmatic patients; format: in vivo; conditions: administered orally to asthmatic patients
Excerpt: This ability of compound 1 to be effective when administered orally is unusual and highly desirable.

[3] = Acute toxicity study, rats; conditions: rat, in vivo
Excerpt: as §1

[4] = Bioavailability of physical forms and compositions (general statement); conditions: in vivo
[5] = Physical stability of the physical forms / conversion between forms; format: physicochemical
[6] = Comparison of bioavailability in dogs (compositions with polyvinylpyrrolidone and forms A, B and X); format: in vivo; conditions: 20 mg tablet with polyvinylpyrrolidone
Excerpt: During each study period, blood samples were periodically obtained from each animal and the concentration of compound 1 determined.

Row | Structure (SMILES) | bioavailability [4] | Area under curve [6] | Maximum concentration [6] | Half-life [6] | physical stability [5] | further results
1 | COc1cc(C(=O)NS(=O)(=O)c2ccccc2C)ccc1Cc1cn(C)c2ccc(NC(=O)OC3CCCC3)cc12 [Compound 1, N-[4-[5-(cyclopentyloxycarbonyl)amino-l-methylindol-3-ylmethyl]-3-methoxybenzoyl]-2-methylbenzenesulphonamide] | – | – | – | – | – | LD50 [1]: > 500 mg/kg; solubility in water (Solubility in water): relatively poor solubility; effectiveness in the treatment of asthma [2]: effective; LD50 [3]: > 500 mg/kg
2 | COc1cc(C(=O)NS(=O)(=O)c2ccccc2C)ccc1Cc1cn(C)c2ccc(NC(=O)OC3CCCC3)cc12 [Form A] | relatively good bioavailability | 4028 ng·h/mL | 1.004 µg/mL | – | – | conversion of form A into form B ([5]; in compositions, high relative humidity and elevated temperatures): conversion of form A into form B has been found to occur; stability of form A in the compositions ([5]; in the compositions according to the invention): acceptably stable; conversion into form B ([5]; in the presence of water): tends to convert into form B; Half-life ([6]; dog, blood, po, 20 mg, read-out: Half-life (converted)): 5.4 h
3 | COc1cc(C(=O)NS(=O)(=O)c2ccccc2C)ccc1Cc1cn(C)c2ccc(NC(=O)OC3CCCC3)cc12 [Form B, N-[4-[5-(cyclopentyloxycarbonyl)amino-l-methylindol-3-yl-methyl]-3-methoxybenzoyl]-2-methylbenzenesulphonamide] | – | 773 ng·h/mL | 0.105 µg/mL | 3.524 h | – | temperature above which form B loses water [5]: above 60 °C
4 | COc1cc(C(=O)NS(=O)(=O)c2ccccc2C)ccc1Cc1cn(C)c2ccc(NC(=O)OC3CCCC3)cc12 [Form X] | relatively poor bioavailability | 1307 ng·h/mL | 0.314 µg/mL | 3.590 h | physically stable | –
5 | COc1cc(C(=O)NS(=O)(=O)c2ccccc2C)ccc1Cc1cn(C)c2ccc(NC(=O)OC3CCCC3)cc12 [forms B] | relatively poor bioavailability | – | – | – | physically stable | –
